Assay results taken from PubChem BioAssay (NCI).
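How tested: cells in 96-well plates exposed to compound for 48 hours at five concentrations. GI50 marks 50% less growth. TGI: concentration producing complete growth inhibition.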

Experiments:
Test in all cases: growth of human tumour cells (NCI), 48 h
[1] = tested on: HCT-15 colon
[2] = tested on: MDA-MB-435
[3] = tested on: T-47D breast
[4] = tested on: RPMI-8226 leukemia
[5] = tested on: PC-3 prostate
[6] = tested on: OVCAR-8 ovarian
[7] = tested on: NCI-H226 lung
[8] = tested on: DU-145 prostate
[9] = tested on: TK-10 renal
[10] = tested on: NCI/ADR-RES ovarian

SMILES | GI50 [1] | TGI [1] | GI50 [2] | TGI [2] | GI50 [3] | TGI [3] | GI50 [4] | TGI [4] | GI50 [5] | TGI [5] | GI50 [6] | TGI [6] | GI50 [7] | TGI [7] | GI50 [8] | TGI [8] | GI50 [9] | TGI [9] | GI50 [10] | TGI [10]
CC1=C2[C@@H](CC1)[C@]1(C)O[C@@](c3ccccc3)(C[C@H]1OC(=O)CO)[C@H]2OC(=O)/C=C/c1ccccc1 | 13.3 µM | 35.6 µM | 16.2 µM | 35.9 µM | 9.37 µM | 48.8 µM | 12.8 µM | 43.7 µM | 8.56 µM | 31.5 µM | 354 nM | 19.9 µM | 16600 nM | 37.2 µM | 16.6 µM | 34.5 µM | 21.9 µM | 49.3 µM | 0.348 µM | 16 µM
COc1ccccc1-c1cc(=O)c2cc(C)cnc2[nH]1 | – | > 100 µM | – | 27.3 µM | – | > 100 µM | – | > 100 µM | 27 µM | > 100 µM | – | > 100 µM | – | > 100 µM | – | > 100 µM | – | > 100 µM | – | 47.1 µM
c1cnn2ncc(-c3ccnc(NCCCN4CCOCC4)n3)c2c1 | 8.01 µM | > 25 µM | 7.56 µM | > 25 µM | 5.93 µM | > 21.3 µM | 6.7 µM | > 25 µM | 8.71 µM | > 25 µM | 7030 nM | > 25 µM | 3790 nM | > 16.8 µM | 7.72 µM | > 25 µM | 6.67 µM | > 23.2 µM | 6.78 µM | > 25 µM
COc1cccc(OC(=O)c2ccc(C(F)(F)F)nc2Nc2cc(Cl)ccc2C)c1 | 4.33 µM | > 100 µM | 24.2 µM | 58.2 µM | 2.82 µM | > 100 µM | 4.2 µM | 23.2 µM | 4.47 µM | > 100 µM | 24200 nM | > 100 µM | 4880 nM | 31.5 µM | 9.01 µM | > 100 µM | 30.7 µM | 92 µM | 19.6 µM | > 100 µM
Cc1ccc(/C=N\NC(=O)c2[nH]c3ccc(F)cc3c2-c2ccccc2)cc1 | 0.0288 µM | – | 0.0217 µM | 0.0495 µM | 1.1 µM | > 100 µM | 0.0395 µM | > 37.2 µM | 0.0345 µM | 20.6 µM | 38.9 nM | > 100 µM | 32.1 nM | > 100 µM | 0.0251 µM | 0.0622 µM | 0.0412 µM | > 93.3 µM | 0.0238 µM | 1.91 µM
O=C(Nc1ccc(OCc2nnc(-c3ccc(Cl)cc3)o2)c(F)c1)Nc1ccc(Cl)c(C(F)(F)F)c1 | 2.03 µM | 10.9 µM | 2.62 µM | 11.6 µM | 2.21 µM | 8.66 µM | 1.82 µM | 8.09 µM | 1.84 µM | 7.87 µM | 2970 nM | 12.1 µM | 2840 nM | 13.2 µM | 2.48 µM | 6.78 µM | 3.72 µM | 17 µM | 2.59 µM | 11.5 µM
CN[C@@H](C)C(=O)N[C@H](C(=O)N1CCC[C@H]1C(=O)Nc1sc(-c2ncco2)nc1-c1ccccc1)C1CCCCC1 | 22.6 µM | > 78.7 µM | 26.3 µM | > 87.9 µM | 24.3 µM | 82.4 µM | 25.1 µM | > 89.9 µM | 42 µM | > 100 µM | 17200 nM | 42.7 µM | > 100000 nM | > 100 µM | > 95.8 µM | > 100 µM | 57.5 µM | > 100 µM | 27.4 µM | > 83.2 µM
O=C1CCC(N2Cc3cc(CNC(=O)C(F)(F)c4ccc(Cl)cc4)ccc3C2=O)C(=O)N1 (stereo not drawn) | 0.511 µM | > 100 µM | > 100 µM | > 100 µM | 0.442 µM | > 100 µM | > 54.7 µM | > 100 µM | 4.71 µM | > 100 µM | 243 nM | > 100 µM | 1750 nM | > 100 µM | > 100 µM | > 100 µM | > 100 µM | > 100 µM | 29.2 µM | > 100 µM
O=C1OCC2=C1C(c1ccccc1)c1cc3c(cc1N2)OCO3 (stereo not drawn) | 0.0373 µM | > 53.1 µM | – | 0.026 µM | 5.14 µM | > 100 µM | 0.0571 µM | – | 0.0404 µM | > 100 µM | 43.7 nM | > 48.2 µM | 24.5 nM | 0.0742 µM | 0.0443 µM | > 100 µM | 11.4 µM | > 100 µM | 0.0204 µM | 1.62 µM
